Laboratory results reported in patent US20070117818A1, “Pyrimidinone compounds useful as kinase inhibitors” (priority 2004, published 2007).

The molecules below were run against T1, hYAK3 (Homo sapiens, UniProt O43781) (assay: YAK3 Scintillation Proximity Assay using Ser164 of myelin basic protein as phosphoacceptor (kinase assay of purified hYAK3)). Conditions: purified GST-hYak3-His6 (aa 124-526), 0.001 mM ATP, 4 μM Ser164 peptide, 2 hours at room temperature; pIC50 = −log10(IC50).
T1 construct: made in house; host or cells: baculovirus expression system in Sf9 cells
T1 sequence (O43781 124-526): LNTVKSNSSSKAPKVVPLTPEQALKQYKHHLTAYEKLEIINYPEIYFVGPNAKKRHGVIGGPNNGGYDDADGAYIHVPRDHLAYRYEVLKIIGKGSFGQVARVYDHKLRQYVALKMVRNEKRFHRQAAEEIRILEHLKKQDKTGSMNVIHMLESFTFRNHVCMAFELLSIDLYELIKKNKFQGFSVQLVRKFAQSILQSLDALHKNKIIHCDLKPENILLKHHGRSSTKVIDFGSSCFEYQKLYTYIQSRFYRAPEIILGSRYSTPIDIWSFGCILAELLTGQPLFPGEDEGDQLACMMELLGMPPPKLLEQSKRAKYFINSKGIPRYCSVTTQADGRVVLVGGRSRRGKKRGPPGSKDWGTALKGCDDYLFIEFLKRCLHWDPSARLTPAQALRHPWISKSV
Assay type: biochemical
Experimental: Substrate phosphorylation assays were carried out as follows:
YAK3 Scintillation Proximity Assays Using Ser164 of Myelin Basic Protein as the phosphoacceptor
The source of Ser164 substrate oeptide The biotinylated Ser164, S164A peptide (Biotinyl-LGGRDSRAGS*PMARR-OH), sequence derived from the C-terminus of bovine myelin basic protein (MBP) with Ser162 substituted as Ala162, was purchased from California Peptide Research Inc. (Napa, Calif.), and its purity was determined by HPLC. Phosphorylation occurs at position 164 (marked S* above). The calculated molecular mass of the peptide was 2166 dalton. Solid sample was dissolved at 10 mM in DMSO, aliquoted, and stored at −20° C. until use.
hYAK3: Glutathione-S-Transferase (GST)-hYak3-His6 containing amino acid residues 124-526 of human YAK3 (aa 124-526 of SEQ ID NO 2. in U.S. Pat. No. 6,323,318) was purified from baculovirus expression system in Sf9 cells using Glutathione Sepharose 4B column chromatography followed by Ni-NTA-Agarose column chromatography. Purity greater than 65% typically was achieved. Samples, in 50 mM Tris, 150 mM NaCl, 10% glycerol, 0.1% Triton, 250 mM imidazole, 10 mM β-mercapto ethanol, pH 8.0. were stored at −80° C. until use.
Kinase assay of purified hYAK3: Assays were performed in 96 well (Costar, Catalog No. 3789) or 384 well plates (Costar, Catalog No. 3705). Reaction (in 20, 25, or 40 μl volume) mix contained in final concentrations 25 mM Hepes buffer, pH 7.4; 10 mM MgCl2; 10 mM β-mercapto ethanol; 0.0025% Tween-20; 0.001 mMATP, 0.1 μCi of [γ-^33P]ATP; purified hYAK3 (7-14 ng/assay; 4 nM final); and 4 μM Ser164 peptide. Compounds, titrated in DMSO, were evaluated at concentrations ranging from 50 μM to 0.5 nM. […] Reactions were incubated for 2 hours at room temperature and were stopped by a 75 ul addition of 0.19 μg Streptavidin Scintillation Proximity beads (Amersham Pharmacia Biotech, Catalog No. RPNQ 0007) in PBS, pH 7.4, 10 mM EDTA, 0.1% Triton X-100, 1 mM ATP. Under the assay conditions defined above, the Km(apparent) for ATP was determined to be 7.2+-2.4 μM.
In the case of NS(=O)(=O)c1cccc(Nc2nc(-c3ccc4nc(NC(=O)c5cccs5)[nH]c4c3)cc(=O)[nH]2)c1 [Ig, N-[5-(2-{[3-(Aminosulfonyl)phenyl]amino}-6-oxo-1,6-dihydro-4-pyrimidinyl)-1H-benzimidazol-2-yl]-2-thiophenecarboxamide], the IC50 is reported as 1.02 to 10 nM.
Work on COCCNc1nc(-c2ccc3nc(NC(=O)c4cccs4)[nH]c3c2)cc(=O)[nH]1 [Il, N-[5-(2-{[2-(Methyloxy)ethyl]amino}-6-oxo-1,6-dihydro-4-pyrimidinyl)-1H-benzimidazol-2-yl]-2-thiophenecarboxamide] yielded an IC50 of 10.2 to 100 nM.
For O=C(Nc1nc2ccc(-c3cc(=O)[nH]c(NCCc4ccc(Cl)cc4Cl)n3)cc2[nH]1)c1cccs1 [Ip, N-[5-(2-{[2-(2,4-Dichlorophenyl)ethyl]amino}-6-oxo-1,6-dihydro-4-pyrimidinyl)-1H-benzimidazol-2-yl]-2-thiophenecarboxamide], the IC50 was 102 to 1000 nM.
